According to publication PMC12856293 (The Journal of Biological Chemistry, 2025):

Experiments:
TrzSMsmeg = biological target: T1, TrzSMsmeg (Mycolicibacterium smegmatis, UniProt A0QUG4); assay type: biochemical
T1 construct: gene MSMEG_2198

TyzAMtb = biological target: T2, TyzAMtb (Mycobacterium tuberculosis, UniProt P95232)
T2 construct: gene Rv2336
T2 sequence (P95232 1-322): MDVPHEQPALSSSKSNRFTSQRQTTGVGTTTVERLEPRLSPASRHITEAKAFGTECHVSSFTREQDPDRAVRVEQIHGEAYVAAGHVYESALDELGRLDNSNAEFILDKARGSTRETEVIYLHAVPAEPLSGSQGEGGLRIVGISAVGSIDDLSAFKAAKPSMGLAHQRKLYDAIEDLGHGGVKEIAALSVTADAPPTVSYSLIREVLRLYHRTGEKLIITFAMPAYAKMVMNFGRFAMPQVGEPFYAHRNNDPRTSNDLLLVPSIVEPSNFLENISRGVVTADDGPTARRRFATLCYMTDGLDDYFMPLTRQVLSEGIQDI

T1 sequence (A0QUG4 1-723): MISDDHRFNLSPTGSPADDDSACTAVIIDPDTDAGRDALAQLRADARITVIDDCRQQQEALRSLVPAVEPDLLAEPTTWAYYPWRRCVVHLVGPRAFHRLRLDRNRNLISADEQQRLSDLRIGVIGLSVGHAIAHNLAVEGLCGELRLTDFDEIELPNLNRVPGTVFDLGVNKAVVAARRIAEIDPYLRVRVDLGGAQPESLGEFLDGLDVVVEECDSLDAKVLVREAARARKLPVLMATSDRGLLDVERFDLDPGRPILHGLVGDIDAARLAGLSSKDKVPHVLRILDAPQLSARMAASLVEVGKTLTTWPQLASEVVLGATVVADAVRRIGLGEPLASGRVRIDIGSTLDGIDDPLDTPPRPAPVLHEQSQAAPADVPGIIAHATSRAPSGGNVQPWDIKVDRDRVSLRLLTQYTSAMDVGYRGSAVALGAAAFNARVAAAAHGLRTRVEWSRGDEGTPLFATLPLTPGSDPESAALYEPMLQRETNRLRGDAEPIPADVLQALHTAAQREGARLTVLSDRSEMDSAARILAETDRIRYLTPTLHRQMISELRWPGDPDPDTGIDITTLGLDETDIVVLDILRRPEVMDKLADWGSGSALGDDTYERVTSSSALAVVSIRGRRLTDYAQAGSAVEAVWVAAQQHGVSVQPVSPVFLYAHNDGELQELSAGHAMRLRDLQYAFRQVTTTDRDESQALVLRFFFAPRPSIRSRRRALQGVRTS

Compound	LC-QTOF product detection, coupled with TrzAMtb (TrzSMsmeg)	LC-QTOF endpoint product detection (TyzAMtb)
Nc1ncnc2c1ncn2[C@@H]1O[C@H](COP(=O)(O)OP(=O)(O)OP(=O)(O)O)[C@@H](O)[C@H]1O [ATP]	only the N-acyl tryptophan was observed when ATP was omitted from the reaction	–
CCCC(=O)N[C@@H](Cc1c[nH]c2ccccc12)C(=O)O [C4:0-tryptophan]	we detected significant amounts of C4:0-tryptophan, produced by TrzAMtb, and C4:0-tryptazolone	–
CCCCCCCCCCCC(=O)SCCNC(=O)CCNC(=O)[C@H](O)C(C)(C)COP(=O)(O)OP(=O)(O)OC[C@H]1O[C@@H](n2cnc3c(N)ncnc32)[C@H](O)[C@@H]1OP(=O)(O)O [C12:0-CoA]	–	we detected substantial amounts of C12:0-Tyr, C12:0-tyrazolone
